Assay results from EPA's ToxValDB 9.5 (doi:10.2903/j.efsa.2010.1645).
In brackets after ≈: the same amount, converted by molar mass.

Legend:
[1] = test system: Apis mellifera; settings: acute, duration: 48 hours, mortality
[2] = test system: Bibionidae; settings: chronic/long-term; duration: 28 days; development
[3] = test system: Daphnia magna; settings: chronic/long-term; duration: 21 days; reproduction
[4] = test system: Folsomia candida; settings: chronic/long-term; duration: 28 days; reproduction
[5] = test system: Glycine sp.; settings: chronic/long-term; seedling emergence
[6] = test system: Oncorhynchus mykiss; settings: acute; duration: 96 hours; mortality
[7] = test system: Pimephales promelas; settings: chronic/long-term; duration: 35 days; growth
[8] = test system: Rattus norvegicus
[9] = test system: Tagia sp.
[10] = test system: Typhlodromus pyri; test: LR50; higher = less toxic; settings: acute; duration: 7 days; mortality

`CC(C)[C@@H](Nc1ccc(C(F)(F)F)cc1Cl)C(=O)OC(C#N)c1cccc(Oc2ccccc2)c1` (stereo not given in full) [tau-Fluvalinate] was tested, and the LD50 ([1]; dermal) was 12 µg/piece, the LD50 ([1]; oral, unspecified) was 12.6 µg/piece and the NOEC [2] was 0.00024 mg/L. For the same compound, the NOEC [3] was 2.1e-05 mg/L, the NOEC [4] was 9.6 mg/kg and the NOEC [5] was less than 6.25 g/ha. The LC50 [6] was 7.94 ng/mL (≈ 0.0158 µM), the NOEC [7] was 6.4e-05 mg/L and the NOAEL ([8]; chronic, duration: 2 years, body weight) was 0.5 mg/kg-day. The NOAEL ([8]; developmental, development) was 5 mg/kg-day, the NOAEL ([8]; short-term, duration: 28 days, clinical signs) was 6 mg/kg-day and the NOAEL ([8]; subchronic, duration: 90 days, oral, diet, body weight) was 1 mg/kg-day. It also gave an LC50 ([9]; acute, duration: 14 days, mortality) greater than 1000 mg/kg, an NOEC ([9]; chronic/long-term, duration: 56 days, reproduction) greater than 2.88 mg/kg and an LR50 [10] of 0.049 g/ha.
